Assay results reported in patent US20250327074A1 (SHAOXING INSTITUTE, ZHEJIANG UNIVERSITY, priority 2024, published 2025).

Test system: TCG codon, mammalian cells
Assay: TCG codon recoding efficiency of all amino acids (Table 1)
Type: cell-based
Details: TCG codon recoding of the unnatural amino acid with the aaRS and mutation of the same table line
Excerpt: Specific details are shown in Table 1 below, where “wt” represents the wild-type aminoacyl-tRNA synthetase, “mutation sites” indicate the positions and types of mutations related to specific unnatural amino acid binding on the wild-type aminoacyl-tRNA synthetase, and “unnatural amino acid” represents the unnatural amino acid corresponding to the mutated aminoacyl-tRNA synthetase. In the unnatural amino acid encoding efficiency, “+” indicates a recoding efficiency greater than 40%, “++” greater than 60%, and “+++” greater than 80%.
Accordingly, this application compiles all amino acids reported in the literature that are recognized by orthogonal aminoacyl-tRNA synthetases in mammalian systems and evaluates their recoding efficiency using the TCG codon as an example.

SMILES	Recoding rate (%) (numeric values)	Recoding rate (%) (class symbols)
N[C@@H](Cc1csc2ccccc12)C(=O)O [compound 252]	89	–
Cn1cncc1C[C@H](N)C(=O)O [compound 253]	85	–
N[C@@H](Cc1cn(Cc2ccccc2[N+](=O)[O-])cn1)C(=O)O [compound 254]	–	++ (“++” greater than 60%)
N[C@@H](Cc1ccsc1)C(=O)O [compound 256]	64	–
N[C@@H](Cc1cncs1)C(=O)O [compound 257]	91	–
N[C@@H](Cc1cccs1)C(=O)O [compound 258]	72	–
N[C@@H](Cc1ccc(Br)s1)C(=O)O [compound 259]	87	–
N[C@@H](Cc1ccco1)C(=O)O [compound 260]	43	–
N[C@@H](CC(=O)OCc1ccccc1[N+](=O)[O-])C(=O)O [compound 261]	23	–
N[C@@H](CCC(=O)OCc1ccccc1[N+](=O)[O-])C(=O)O [compound 263]	–	+ (“+” indicates a recoding efficiency greater than 40%)
N[C@@H](CCC(=O)OCc1cc2c(cc1[N+](=O)[O-])OCO2)C(=O)O [compound 264]	–	++ (“++” greater than 60%)
N[C@@H](CCC(=O)OCc1ccccc1)C(=O)O [compound 265]	–	++ (“++” greater than 60%)
N[C@@H](CC(=O)OCc1ccccc1)C(=O)O [compound 266]	75	–
N[C@@H](CC(=O)SCCNC(=O)OC1CCCC1)C(=O)O [compound 267]	–	++ (“++” greater than 60%)
N[C@@H](CSCc1ccccc1[N+](=O)[O-])C(=O)O [compound 268]	–	+ (“+” indicates a recoding efficiency greater than 40%)
C=CC[Se]C[C@H](N)C(=O)O [compound 272]	–	+ (“+” indicates a recoding efficiency greater than 40%)

SMILES	Recoding rate (%) (numeric values)	Recoding rate (%) (class symbols)
C#CCSC[C@H](N)C(=O)O [compound 273]	–	+ (“+” indicates a recoding efficiency greater than 40%)
N[C@@H](CCSCNC(=O)Cc1ccccc1)C(=O)O [compound 274]	–	++ (“++” greater than 60%)
N[C@@H](Cc1ccc2c(c1)C(=O)C1C=CC=CC1N2)C(=O)O (stereo partly shown) [compound 277]	63	–
CN(C)c1ccc(-c2oc(N)nc2C(=O)O)cc1 [compound 279]	–	++ (“++” greater than 60%)
C=CCSC[C@H](N)C(=O)O [compound 280]	–	+ (“+” indicates a recoding efficiency greater than 40%)
CCCSC(=O)CCC(=O)NCCCC[C@H](N)C(=O)O [compound 283]	55	–
CCCSC(=O)CCCC(=O)NCCCC[C@H](N)C(=O)O [compound 284]	57	–
N[C@@H](Cc1c[nH]c2c3c(ccc12)OCC3)C(=O)O [compound 285]	–	++ (“++” greater than 60%)
N[C@@H](Cc1cccc(I)c1)C(=O)O [compound 286]	61	–
N[C@@H](Cc1ccc(OS(=O)(=O)F)cc1)C(=O)O [compound 287]	–	+++ (“+++” greater than 80%)
CN(C)c1cccc(C[C@H](N)C(=O)O)c1 [compound 288]	–	+++ (“+++” greater than 80%)
N[C@@H](Cc1cccc(N2CCCC2)c1)C(=O)O [compound 289]	–	++ (“++” greater than 60%)
Cc1ccc2c(C[C@H](N)C(=O)O)c[nH]c2c1 [compound 290]	76	–
N[C@@H](Cc1c[nH]c2cc(Cl)ccc12)C(=O)O [compound 291]	73	–
N[C@@H](Cc1c[nH]c2cc(Br)ccc12)C(=O)O [compound 292]	73	–
